How the values were obtained:
[1] = system: human ovarian carcinoma, Burkitt’s lymphoma, pancreatic carcinoma and T-cell leukemia cells; assay: Anticancer activity, summary over four cancer cell lines; type: cell-based; settings: read-out: IC50 values, range over cell lines
Protocol: Determination of viability of cells in the presence of prodrugs and controls A2780 and BL-2 cells The medium was removed, and the cells were washed two times with DPBS, trypsinated, and resuspended in RPMI 1640 medium (A2780) supplemented with 5% FBS (for 24 h and 48 h assay) or 10% FBS (for 96 h assay) , 1% L-glutamine, and 1% penicillin/streptomycin.
A2780 cells: This suspension was spread in the wells of a 96 -well microtiter plate (25000 cells for A2780 per well per 100 μL) and left standing at 37 °C in the chamber filled with CO2 (5%) for overnight. […] Afterward, the intensity of the absorbance at 590 nm was measured.
MTT is converted in live cells to blue dye with the absorbance maximum λ max at 590 nm.
The absorbance at 690 nm was taken as a baseline value. The baseline corrected absorbance at 590 nm (A(590 nm) − A(690 nm)) was applied to calculate the relative number of viable cells. […]
AsPC1 cells The cells (20.000/well) were seeded in a 12-well plate and incubated for 24 h. […] Viable cells were determined based on the morphological parameters by using flow cytometry (Table S4). […]
Jurkat cells The cells were counted in MUSE Cell Analyzer using MUSE® Count &Viability Assay Kit (Merck-Millipore, Billerica, MA, USA) and adjusted to a density of 1.0 x 10^5/ml in RPMI 1640 medium (with 10% FCS and 1% glutamine). […]

[2] = Hydrolysis of prodrugs in aqueous neutral solution (HPLC-UV-MS); type: physicochemical; settings: 1 to 1_BA
Protocol: To identify the active form of prodrugs 2a–2d in aqueous neutral buffers, we investigated their stability in the water rich solvent mixture containing triethylammonium acetate buffer (pH 7.0, 1.5 mM) and CH3CN (7/3, v/v). We observed that even freshly prepared solutions of analytically pure samples of 2a–2d (peaks eluted at 10.2–10.7 min) contain hydrolyzed species corresponding to boronic acid derivatives 2a_BA–2d_BA (peaks eluted at 7.1–7.5 min, 7–14% of the area of all peaks) (Figure S43, SI). After 2 h incubation of these samples, the peaks of 2a_BA–2d_BA become major ones (79–87% of the area of all peaks, Figure S43, SI).
Figure S42. High resolution ESI-TOF mass spectrum of HCl salt of drug 4 (4*HCl): upper plot – experimental spectrum; bottom plot – theoretical spectrum.
Determination of crystal structure of prodrug 2a […]
Stock solutions of prodrugs (2a-2d, 3 mM) in DMSO were first prepared. […] After the probes (20 µL) of these solutions were incubated for 0 or 2 h at 37 °C, they were injected to HPLC coupled to UV-visible detector (detection of absorbance at 254 nm) and electrospray mass spectrometric detector (detection of positively charged ions in the m/z range of 300 - 1200) and the analytes were separate d by using gradients of CH3CN (containing formic acid, 0.1 %, v/v) in water (containing ammonium formate, 10 mM and formic acid, 0.1 %, v/v) from 15% to 95%. […]

| Structure (SMILES) | IC50 [1] | time of formation of the hydrolyzed form in aqueous neutral solution [2] |
| --- | --- | --- |
| CC1(C)OB(c2ccc(COC(=O)N(Cc3cn(Cc4ccc(Cn5cc(Cc6ccccc6)nn5)cc4)nn3)[c-]3cccc3)cc2)OC1(C)C.[Fe+2].c1cc[cH-]c1 [2c] | 5 to 7.1 µM | – |
| CCOC(=O)CCCCCn1cc(CN(C(=O)OCc2ccc(B3OC(C)(C)C(C)(C)O3)cc2)[c-]2cccc2)nn1.[Fe+2].c1cc[cH-]c1 [compound 1] | – | < 2 h |

— PMC8750417, “Intracellular Amplifiers of Reactive Oxygen Species Affecting Mitochondria as Radiosensitizers” (Cancers, 2021)
